Measured values reported in US10751285B1, “Synthesis of C resorcinarene based novel amphiphilic supramolecular macrocycle as nano-scale drug loading system” (priority 2019, dated 2020).

Experiment: Critical micelle concentration (CMC) by UV-visible spectrophotometer
Type: physicochemical
Details: in methanol; absorbance at 283 nm; 0.001-0.09 mM range
Protocol: CMC of the synthesized resorcinarene based amphiphilic supramolecular macrocycle was investigated in methanol using UV-visible spectrophotometer. Amphiphile methanolic solutions in 0.001-0.09 mM range were read on UV-visible spectrophotometer, giving characteristic absorbance at 283 nm.

- CMC: 0.04 mM
SMILES: CCCCCCCCCCCCCCCCOc1ccc(C2c3cc(c(O)cc3O)C(c3ccc(OCCCCCCCCCCCCCCCC)cc3)c3cc(c(O)cc3O)C(c3ccc(OCCCCCCCCCCCCCCCC)cc3)c3cc(c(O)cc3O)C(c3ccc(OCCCCCCCCCCCCCCCC)cc3)c3cc2c(O)cc3O)cc1 (stereo not shown) [ASRM]
